Source: patent publication US20080200499A1, “Selective Insecticides and/or Acaricides Based on Substituted Cyclic Dicarbonyl Compounds and Safeners” (priority 2004, published 2008)

Legend:
Assay type in all cases: in vivo
[1] = system: grain aphids (Metopolophium dirhodum); assay: Metopolophium dirhodum test (spray application); conditions: barley plants
Text: (§1) The expected activity of a given combination of two active compounds can be calculated according to S. R. Colby, Weeds 15 (1967), 20-22 as follows:
(§2) if • X is the kill rate when employing active compound A at an application rate of m g/ha or in a concentration of m ppm, • Y is the kill rate when employing active compound B at an application rate of n g/ha or in a concentration of n ppm and • E is the kill rate when using the active compounds A and B at application rates of m and n g/ha or in a concentration of m and n ppm, then
(§3) If the actual activity exceeds the calculated value, the activity of the combination is superadditive, i.e. a synergistic effect is present. In this case, the actually observed kill rate must exceed the value calculated using the above formula for the expected kill rate (E).
(§4) To prepare a suitable application solution, 1 part by weight of formulation is mixed with the appropriate amount of water and the adjuvant and the concentrate is diluted with water to the desired concentration.
Barley plants (Hordeum vulgare) which are heavily infested by a grain aphids (Metopolophium dirhodum) are sprayed to runoff point with the desired concentration of the application solution.
(§5) After the desired period of time, the kill in % is determined. 100% means that all aphids have been killed; 0% means that none of the aphids have been killed. The determined kill rates are entered in Colby's formula.

[2] = system: cotton aphid (Aphis gossypii); assay: Aphis gossypii test (spray application); conditions: cotton plants
Text: as §1, §2, §3, §4
Cotton plants (Gossypium herbaceum) which are heavily infested by the cotton aphid (Aphis gossypii) are sprayed to runoff point with the desired concentration of the application solution.
as §5

[3] = system: green peach-aphid (Myzus persicae); assay: Myzus persicae test (spray application); conditions: bell pepper plants
Text: as §1, §2, §3, §4
Bell pepper plants (Capsicum sativum) which are heavily infested by the green peach-aphid (Myzus persicae) are sprayed to runoff point with the desired concentration of the application solution.
as §5

Maize = assay: Greenhouse trial with safener after seed dressing (seed trays), maize; conditions: evaluation after 14 d
Procedure: In an agate mortar, the amount of safener and the amount of active compound required to prepare a 20 WS formulation are dissolved in acetone, and the appropriate amount of formulation without active compounds (which is actually used to prepare Gaucho 70 WS) is added. The mixture is allowed to dry until only a small amount of residual moisture can be detected. Using a spatula, the substance is carefully detached from the side of the mortar, and the substance is comminuted in the mortar until it has dried. An amount of the laboratory formulation thus prepared which is appropriate for the amount of seed to be dressed is filled into beakers of a size big enough so that, during dressing, they are at most one third filled with seed. A sufficient amount of water (depending on the properties of the seed surface) is then added. The seed is then filled into these beakers containing formulation and water and dressed on a test tube shaker with the aid of a spatula or glass rod. Once the formulation is distributed on the seed as uniformly as possible, the seed is allowed to dry in a fume hood. 3 l trays made of plastic (20×20×5 cm) are filled with sandy loam. Using a punch, the soil is firmed such that the deposition depth required for the crop in question is achieved. 20 seeds/seed tray are placed at regular intervals with the aid of a pair of tweezers impressed into the soil using the abovementioned punch. The test containers are placed in a greenhouse and, using the punch, the surface is once again firmed gently. In addition to the test substances, an untreated control is tested, too. Per variant, there are at least 2 trays. The trays are watered and covered with a film until the plants have emerged. After emergence, the trays are watered 2 times a day. Evaluation is carried out by counting the plants that have emerged and by assessing damage, (in %) over an interval of 5-14 days after sowing in comparison to the untreated control.

Summer barley = assay: Greenhouse trial with safener after seed dressing (seed trays), summer barley; conditions: evaluation after 14 d
Procedure: (§6) In an agate mortar, the amount of safener and the amount of active compound required to prepare a 20 WS formulation are dissolved in acetone, and the appropriate amount of formulation without active compounds (which is actually used to prepare Gaucho 70 WS) is added. The mixture is allowed to dry until only a small amount of residual moisture can be detected. Using a spatula, the substance is carefully detached from the side of the mortar, and the substance is comminuted in the mortar until it has dried. An amount of the laboratory formulation thus prepared which is appropriate for the amount of seed to be dressed is filled into beakers of a size big enough so that, during dressing, they are at most one third filled with seed. A sufficient amount of water (depending on the properties of the seed surface) is then added. The seed is then filled into these beakers containing formulation and water and dressed on a test tube shaker with the aid of a spatula or glass rod. Once the formulation is distributed on the seed as uniformly as possible, the seed is allowed to dry in a fume hood.
(§7) 3 l trays made of plastic (20×20×5 cm) are filled with sandy loam. Using a punch, the soil is firmed such that the deposition depth required for the crop in question is achieved. 20 seeds/seed tray are placed at regular intervals with the aid of a pair of tweezers impressed into the soil using the abovementioned punch. The test containers are placed in a greenhouse and, using the punch, the surface is once again firmed gently. In addition to the test substances, an untreated control is tested, too. Per variant, there are at least 2 trays. The trays are watered and covered with a film until the plants have emerged. After emergence, the trays are watered 2 times a day. Evaluation is carried out by counting the plants that have emerged and by assessing damage, (in %) over an interval of 5-14 days after sowing in comparison to the untreated control.

Winter barley [4] = assay: Greenhouse trial with safener after seed dressing (seed trays), winter barley; conditions: evaluation after 14 d
Procedure: as §6, §7

[5] = system: bird cherry-oat aphid (Rhopalosiphum padi); assay: Safener test after spraying, variant b: kill of aphids on winter barley; conditions: spray
Procedure: (§8) To produce a suitable preparation of active compound, 1 part by weight of active compound is mixed with the stated amounts of solvent and emulsifier, and the concentrate is diluted with tap water to the desired concentration. The desired amount of safener (in the case of mefenpyr-diethyl as WP 20) is mixed into the water used for dilution. Furthermore, 2 g of ai/l of rapeseed oil methyl ester 500 EW are added. Leaves of winter barley at the 2-leaf stage which are infested by the bird cherry-oat aphid (Rhopalosiphum padi) are treated with the desired active compound and safener concentrations using a spray boom, the water application rate being 300 l/ha. Per variant, the test is carried out at least twice. Evaluation is carried out after 7 d and/or 14 d by assessing the plant damage in %, where both the treated plant and new growth and the kill of the grain aphids in % compared to the untreated control are evaluated. 100% damage means that the plant has died, and 0% means no damage. 100% effect on the grain aphids means that all aphids have been killed; 0% means that none of the aphids have been killed.
(§9) In variant b), the active compound is applied as an SC formulation in the desired concentrations as in variant a) in a mixture with mefenpyr-diethyl WP 20 and 2 g of ai/l rapeseed oil methyl ester 500 EW. Practice and evaluation is carried out as stated in variant a).

Winter barley [6] = assay: Safener test after spraying, variant b: plant damage
Procedure: as §8, §9

[7] = system: bird cherry-oat aphid (Rhopalosiphum padi); assay: Safener test after spraying, variant a: kill of aphids on winter barley; conditions: spray
Procedure: as §8

Winter barley [8] = assay: Safener test after spraying, variant a: plant damage
Procedure: as §8

[9] = variant b, spray, 200 g of ai/ha
[10] = variant b, spray, 200 g of ai/ha, 14 d
[11] = variant a, spray, 200 g of ai/ha

CCCCCC(C)OC(=O)COc1ccc(Cl)c2cccnc12 (centres unmarked) [Cloquintocet-mexyl a.i., 1-methylhexyl 5-chloroquinolin-8-oxyacetate]
Kill rate in % after 7 d ([1]; 100 ppm): 0%

C=CCN(CC=C)C(=O)C(Cl)Cl [Dichlormid a.i., 2,2-dichloro-N,N-di-2-propenylacetamide]
Kill rate in % after 7 d ([2]; 100 ppm): 0% | Kill rate in % after 7 d ([3]; 100 ppm): 0%

Cc1cc(Cl)cc(C)c1C1(Cl)C(=O)NC2(CCOCC2)C1=O (centres unmarked) [Example I-1-1]
% damage (Maize; 2 g of ai/kg of seed): 95% | plants that have emerged in % (Maize; 2 g of ai/kg of seed): 71% | % damage (Summer barley; 2 g of ai/kg of seed): 100% | plants that have emerged in % (Summer barley; 2 g of ai/kg of seed): 0% | % damage (Winter barley [4]; 2 g of ai/kg of seed): 100% | plants that have emerged in % (Winter barley [4]; 2 g of ai/kg of seed): 0% | Kill rate in % after 7 d ([2]; 20 ppm): 20%

COC1CCC2(CC1)NC(=O)C(Cl)(c1c(C)cc(Br)cc1C)C2=O (centres unmarked) [Example I-1-2]
Kill (%) 7 d ([5]; 8 g of ai/ha): 73% | Kill (%) 14 d ([5]; 8 g of ai/ha): 33% | Kill (%) 7 d ([5]; 40 g of ai/ha): 100% | Kill (%) 14 d ([5]; 40 g of ai/ha): 70% | Damage (%) 7 d (Winter barley [6]; winter barley, in vivo): 40% | Damage to new growth (%) 7 d (Winter barley [6]; winter barley, in vivo): 100% | Damage (%) 14 d (Winter barley [6]; winter barley, in vivo, 14 d): 60% | Kill (%) 7 d ([7]; 40 g of ai/ha): 100% | Kill (%) 14 d ([7]; 40 g of ai/ha): 78% | Damage (%) 7 d (Winter barley [8]; winter barley, in vivo): 40% | Damage to new growth (%) 7 d (Winter barley [8]; winter barley, in vivo): 70% | Damage (%) 14 d (Winter barley [8]; winter barley, in vivo): 50% | Damage to new growth (%) 14 d (Winter barley [8]; winter barley, in vivo): 80% | Kill rate in % after 3 d ([2]; 20 ppm): 0% | Kill rate in % after 7 d ([3]; 20 ppm): 25% | Kill rate in % after 7 d ([1]; 20 ppm): 45%

Clc1cc(Cl)nc(-c2ccccc2)n1 [Fenclorim a.i., 4,6-dichloro-2-phenylpyrimidine]
Kill rate in % after 3 d ([2]; 100 ppm): 0% | Kill rate in % after 7 d ([2]; 100 ppm): 0% | Kill rate in % after 7 d ([3]; 100 ppm): 0%

CC1(C)OC(c2ccco2)CN1C(=O)C(Cl)Cl (centres unmarked) [Furilazole a.i., 3-dichloroacetyl-5-(2-furanyl)-2,2-dimethyloxazolidine]
Kill rate in % after 3 d ([2]; 100 ppm): 0% | Kill rate in % after 7 d ([3]; 100 ppm): 0% | Kill rate in % after 7 d ([1]; 100 ppm): 0%

CCOC(=O)C1=NOC(c2ccccc2)(c2ccccc2)C1 [Isoxadifen-ethyl, ethyl 4,5-dihydro-5,5-diphenyl-3-isoxazolecarboxylate]
% damage (Maize; 1 g of ai/kg of seed): 0% | plants that have emerged in % (Maize; 1 g of ai/kg of seed): 96%

CCOC(=O)C1=NN(c2ccc(Cl)cc2Cl)C(C)(C(=O)OCC)C1 (centres unmarked) [Mefenpyr-diethyl, diethyl 1-(2,4-dichlorophenyl)-4,5-dihydro-5-methyl-1H-pyrazole-3,5-dicarboxylate]
% damage (Summer barley; 1 g of ai/kg of seed): 0% | plants that have emerged in % (Summer barley; 1 g of ai/kg of seed): 75% | % damage (Winter barley [4]; 1 g of ai/kg of seed): 0% | plants that have emerged in % (Winter barley [4]; 1 g of ai/kg of seed): 83% | Kill (%) 7 d ([5]; 200 g of ai/ha): 0% | Kill (%) 14 d ([5]; 200 g of ai/ha): 0% | Damage (%) 7 d (Winter barley [6]; [9]): 0% | Damage to new growth (%) 7 d (Winter barley [6]; [9]): 0% | Damage (%) 14 d (Winter barley [6]; [10]): 0% | Damage to new growth (%) 14 d (Winter barley [6]; [10]): 0% | Kill (%) 7 d ([7]; 200 g of ai/ha): 0% | Kill (%) 14 d ([7]; 200 g of ai/ha): 0% | Damage (%) 7 d (Winter barley [8]; [11]): 0% | Damage to new growth (%) 7 d (Winter barley [8]; [11]): 0% | Damage (%) 14 d (Winter barley [8]; [11]): 0% | Damage to new growth (%) 14 d (Winter barley [8]; [11]): 0%
